Laboratory results reported in patent publication US20160339094A1, “BACTERIAL INFLUENCE OF HOST FEEDING AND EMOTION VIA CLPB PROTEIN MIMICRY OF A-MSH” (priority 2013, published 2016).

Legend:
[1] = biological target: ClpB (Escherichia coli, UniProt P63284); conditions: plasma extracted IgG of ClpB immunized mice vs other groups; SPR
Procedure: (§1) Extraction of plasma globulins was done by plasma acidification and separation on C-18 SEP column (Phoenix Pharmaceuticals, Burlingame, Calif.) according to the manufacturer instructions. In detail, 500 μl of mouse or rat plasma was mixed with 500 μl of buffer A (1% trifluoroacetic acid TFA in water). The column was activated in 1 ml of buffer B (60% acetonitrile in 1% TFA) by 3 min centrifugation with 700 rpm and rinsed 3 times with 3 ml of buffer A. Diluted plasma (1:1 in buffer A) was added to the column and the effluent (1 ml) was saved (frozen at −20° C.) for further purification of IgG. Total IgG were purified from the effluents of rat plasma samples using the Melon Gel Kit (Thermo Fisher Scientific, Rockford, Ill.) according to the manufacturer instructions. In brief, plasma effluents diluted 1:4 in kit's purification buffer was added on washed melon gel deposited in a column. Column was spinned 1 min at 6,000 r.p.m. and the IgG containing effluent was saved and frozen at −20° C. before lyophilization. Lyophilized IgG were reconstituted in the HBS-EP buffer (GE Healthcare, Piscataway, N.J.).
(§2) For the affinity kinetic analysis, a multi-cycle method was run with five serial dilutions of each IgG sample: 3360, 1680, 840, 420 and 210 (nmol) including a duplicate of 840 nmol and a blank sample (HBS-EP buffer only).

[2] = biological target: α-MSH (Homo sapiens, UniProt P01189); conditions: IgG of ClpB immunized mice vs controls; SPR
Procedure: as §1, §2

[3] = test system: C57B16 mice; experiment: Locomotor activity and anxiety tests (open field, elevated O-maze) in immunized mice; format: in vivo
Procedure: After the feeding study, mice were placed in individual mouse holding cages with food and water available ad libitum and were analyzed for locomotor activity and anxiety in O-maze tests performed during two consecutive days. Two hours after the O-maze test, mice were killed by decapitation in a guillotine and trunk blood was collected into EDTA-containing tubes. Plasma was separated by centrifugation at 3,500 r.p.m. ([…]) for 10 min at 4° C. and stored at −80° C. before assay.
After feeding study in the BioDAQ cages, mice were analyzed for locomotor activity using a Versamax Animal Activity Monitor (AccuScan Instruments, Inc., Columbus, Ohio). Next day after the locomotor activity test all mice were tested for their anxiety in an elevated-O-maze. The elevated-O-maze is a variation of more commonly used elevated-plus-maze pharmacologically validated for anxiety testing in rodents (Crawley, J. N. and Bailey, K. R., Methods of behavior analysis in neuroscience, 77-101 (CRC Press, 2009)). The advantage of the O-maze is that it lacks the ambiguous central square of the traditional plus-maze. The O-maze (Med Associate, Inc., St. Albans, Vt.) consisted of a circular infrared platform (outer diameter 120 cm) elevated 80 cm above the floor, featuring two open and two closed segments made of grey plastic. The closed segments were enclosed by walls extending 20 cm above the surface of the maze and covered with a black infrared Plexiglas lid. Each test started by placing the mouse into one of the two closed segments. The test lasted 5 min and was recorded using a video-camera placed above the O-maze and the EthoVision video tracking software (Noldus IT, Wageningen, The Netherlands). Measurements of distance and time spent in the open and closed segments were analyzed. Between each mouse tests, the O-maze was cleaned with a 30% alcohol.

[4] = test system: C57B16 mice; experiment: ClpB immunization in mice: body weight, food intake and feeding pattern (BioDAQ cages); format: in vivo
Procedure: Animal care and experimentation were in accordance with guidelines established by the National Institutes of Health, USA and complied with both French and European Community regulations (Official Journal of the European Community L 358, 18 Dec. 1986). Two month-old male C57B16 mice (Janvier Labs L'Arbresle, France) were acclimated to the animal facility for with 12 h light-dark cycle, lights on at 7:00 a.m. and were kept in standard mouse holding cages (n=8) in each. Mice were fed ad libitum with standard pelleted rodent chow (RM1 diet, SDS, UK) with drinking water always available and were manipulated daily by gentle holding and measuring body weight. During acclimatization mice were distributed between four cages to obtain the similar mean body weight per mouse per cage. After one week of acclimatization, mice from each cage were assigned to one of four study group and received following treatments: i) Group 1, ClpB immunization (n=8): ClpB protein (Delphi Genetics) 50 μg/mouse in 200 μl of 1:1 vol. of PBS with Complete Freund's Adjuvant (CFA, Sigma), intraperitoneally (I.P.); ii) Group 2, adjuvant injection controls (n=8): 200 μl of CFA in PBS (1:1 vol., I.P.); iii) Group 3, PBS injection controls (n=8): 200 μl of PBS (I.P.) and iiii) Group 4, Intact controls (n=8): received no injections, and then all mice were returned to their holding cages. Fifteen days later, mice were given a boost immunization and the following treatments: i) Group 1 (n=8), ClpB protein (Delphi Genetics) 50 μg/mouse in 200 μl of 1:1 vol. of PBS with Incomplete Freund's Adjuvant (IFA, Sigma) I.P.; ii) Group 2 (n=8): 200 ═l of IFA in PBS (1:1 vol., I.P.); iii) Group 3, (n=8): 200 ═l of PBS (I.P.) and iiii) Group 4, (n=8): received no injections.
Next day after the boost, mice were placed individually in the BioDAQ mouse cages (Research Diets, Inc., New Brunswick, N.J.) each equipped with an automatic feeding monitor. Food (SERLAB, Montataire France) and drinking water were available ad libitum and body weight was measured daily. After three days of acclimation to the BioDAQ cages, mice received the following treatments: Groups 1, 2 and 3 (each n=8) i.e. mice which have been immunized with ClpB; injected with adjuvants and with PBS, respectively, […] PBS (I.P.) at 10 a.m. The control mice (n=8) received PBS only (I.P.). Feeding data was continuously monitored and analysed using the BioDAQ data viewer 2.3.07 (Research Diets). For the meal pattern analysis, the inter-meal interval was set at 300 sec.

[5] = test system: polyclonal rabbit anti-α-MSH antisera
Procedure: Following 2D-PAGE, E. coli cytoplasmic proteins were transferred onto Hybond-ECL PVDF membrane (GE Healthcare) by using a dry transfer method (Trans Blot Cell, Biorad, USA) and a constant current of 0.8 mA/cm^2 of the membrane size for 2 h. After transfer, membranes were blocked with 5% (wt:v) milk (Regilait, France) in phosphate buffered saline (PBS; 10 mmol/L […], pH 8; 150 mmol/L NaCl) plus 0.05% (v:v) Tween 20.
The recombinant ClpB protein was customly produced by Delphi Genetics SA, (Gosselies, Belgium) in bacterial cultures by the ClpB cDNA synthesis and cloning into an expression vector.

[6] = test system: C57B16 mice; experiment: ClpB immunization in mice: plasma ClpB-, α-MSH- and ACTH-reactive autoantibody ELISA; format: in vivo
Procedure: Two month-old male C57B16 mice (Janvier Labs L'Arbresle, France) were acclimated to the animal facility for with 12 h light-dark cycle, lights on at 7:00 a.m. and were kept in standard mouse holding cages (n=8) in each. […] During acclimatization mice were distributed between four cages to obtain the similar mean body weight per mouse per cage. After one week of acclimatization, mice from each cage were assigned to one of four study group and received following treatments: i) Group 1, ClpB immunization (n=8): ClpB protein (Delphi Genetics) 50 μg/mouse in 200 μl of 1:1 vol. of PBS with Complete Freund's Adjuvant (CFA, Sigma), intraperitoneally (I.P.); ii) Group 2, adjuvant injection controls (n=8): 200 μl of CFA in PBS (1:1 vol., I.P.); iii) Group 3, PBS injection controls (n=8): 200 μl of PBS (I.P.) and iiii) Group 4, Intact controls (n=8): received no injections, and then all mice were returned to their holding cages. Fifteen days later, mice were given a boost immunization and the following treatments: i) Group 1 (n=8), ClpB protein (Delphi Genetics) 50 μg/mouse in 200 μl of 1:1 vol. of PBS with Incomplete Freund's Adjuvant (IFA, Sigma) I.P.; ii) Group 2 (n=8): 200 ═l of IFA in PBS (1:1 vol., I.P.); iii) Group 3, (n=8): 200 ═l of PBS (I.P.) and iiii) Group 4, (n=8): received no injections.
Two hours after the O-maze test, mice were killed by decapitation in a guillotine and trunk blood was collected into EDTA-containing tubes. Plasma was separated by centrifugation at 3,500 r.p.m. (1.4 g) for 10 min at 4° C. and stored at −80° C. before assay.
Plates were washed (5 min×3) in phosphate-buffered saline (PBS) with 0.05% Tween 200, pH 7.4, and then incubated overnight at 4° C. with 100 μl of mouse or rat plasma diluted 1:200 in PBS to determine free autoAbs levels or diluted 1:200 in dissociative 3 M NaCl, 1.5 M glycine buffer, pH 8.9 to determine total autoAbs levels. The plates were washed (3×) and incubated with 100 μl of alkaline phosphatase (AP)-conjugated goat anti-rat IgG (1:2000), anti-rat IgM (1:1000), anti-mouse IgG (1:2000), or anti-mouse IgM (1:1000) all from Jackson ImmunoResearch Laboratories, Inc. (West Grove, Pa.). Following washing (3×), 100 μl of p-nitrophenyl phosphate solution (Sigma) was added as alkaline phosphatase substrate. After 40 min of incubation at room temperature, the reaction was stopped by adding 3N NaOH. The OD was determined at 405 nm using a microplate reader Metertech 960 (Metertech Inc., Taipei, Taiwan). Blank OD values resulting from the reading of plates without addition of plasma samples were subtracted from the sample OD values. Each determination was done in duplicate. The variation between duplicate values was less than 5%.

[7] = day 22, single injection of α-MSH 100 μg/kg body weight, I.P., non-immunized vs ClpB-immunized vs controls

Chain of ClpB (P63284 whole entry): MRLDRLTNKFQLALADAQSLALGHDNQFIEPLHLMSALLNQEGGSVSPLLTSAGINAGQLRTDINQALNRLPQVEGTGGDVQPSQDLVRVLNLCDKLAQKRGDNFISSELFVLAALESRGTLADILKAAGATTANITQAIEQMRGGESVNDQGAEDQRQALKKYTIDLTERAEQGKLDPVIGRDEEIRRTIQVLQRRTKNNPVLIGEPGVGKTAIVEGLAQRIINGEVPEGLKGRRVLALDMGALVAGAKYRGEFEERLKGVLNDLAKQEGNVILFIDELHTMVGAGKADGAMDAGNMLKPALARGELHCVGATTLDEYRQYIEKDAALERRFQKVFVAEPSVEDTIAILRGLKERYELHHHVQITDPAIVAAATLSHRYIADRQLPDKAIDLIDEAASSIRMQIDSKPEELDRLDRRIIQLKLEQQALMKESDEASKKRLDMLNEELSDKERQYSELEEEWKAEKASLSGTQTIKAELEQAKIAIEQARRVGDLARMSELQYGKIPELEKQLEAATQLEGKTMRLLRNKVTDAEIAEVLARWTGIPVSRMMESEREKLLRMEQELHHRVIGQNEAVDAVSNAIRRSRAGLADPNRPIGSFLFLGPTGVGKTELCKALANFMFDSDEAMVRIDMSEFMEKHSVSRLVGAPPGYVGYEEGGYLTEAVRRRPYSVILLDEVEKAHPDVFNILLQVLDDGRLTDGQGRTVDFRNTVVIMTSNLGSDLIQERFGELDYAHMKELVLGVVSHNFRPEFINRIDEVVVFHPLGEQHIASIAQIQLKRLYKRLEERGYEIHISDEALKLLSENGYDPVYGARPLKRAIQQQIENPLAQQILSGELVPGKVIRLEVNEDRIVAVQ

ClpB: recombinant 857 amino acid chaperone protein ClpB of E. coli K12 (SEQ ID NO: 1), injected I.P. with Freund's adjuvant for immunization
affinity of anti-ClpB IgG for ClpB [1]: lower affinities
affinity of IgG for α-MSH [2]: lower affinities for α-MSH
parameters in the O-maze open arms ([3]; ClpB group): did not significantly change
time spent in the closed arms of the O-maze ([3]; ClpB-immunized mice vs all other groups): less time
distance moved in the closed arms of the O-maze ([3]; ClpB-immunized mice vs controls): shorter distance
time spent in the open vs. border areas ([3]; open field, among the groups): did not significantly differ
total locomotor activity ([3]; open field, among the groups): did not significantly differ
meal number ([4]; BioDAQ): did not change
meal size ([4]; BioDAQ, last 10 days): increased meal size
higher mean daily food intake as compared to other groups ([4]; BioDAQ, last 10 days of the experiment): 13%
body weight for few days after injections ([4]; ClpB and CFA, I.P., expected inflammatory response to immunization): lower body weight
higher body weight vs. controls at the end of the experiment ([4]; ClpB immunized mice, 32 days study): 5%
24 h food intake following α-MSH injection [4, 7]: did not differ from controls
body weight 24 h following α-MSH injection [4, 7]: did not differ from controls
Western blot detection by anti-α-MSH antiserum after trypsin digestion ([5]; ClpB digested by trypsin): No band was detected
Western blot detection by anti-α-MSH antiserum ([5]; intact recombinant ClpB): single 96 kDa band
plasma levels of α-MSH-reactive IgG ([6]; ClpB immunized mice): Increased plasma levels
plasma levels of ClpB IgG ([6]; ClpB immunized mice vs other groups (adjuvant, PBS, controls)): higher plasma levels
plasma ACTH-reactive IgG ([6]; among the groups): No significant differences
plasma levels of α-MSH IgM autoAbs ([6]; between the groups): did not significantly differ
